Experimental data taken from patent US6569902B2, “Nitrone inhibition of cancer development” (Oklahoma Medical Research Foundation, priority 2000, dated 2003).
Like-named read-outs stand apart in the source and are kept apart here.

How the values were obtained:
rats fed the CDAA diet = conditions: cited from earlier work
[1] = tested on: rat liver microsome peroxidation; conditions: read-out: IC50, inhibition of rat liver microsome peroxidation; cited from earlier work
[2] = tested on: livers of male Wistar rats fed the CDAA diet; assay: Example 2: oxidative hepatocyte injuries (8-OHdG, TBARS); type: in vivo, rat; conditions: for nuclear DNA 8-OHdG content increased by CDAA diet feeding: all doses, CDAA diet 16 weeks
Text: (§1) Animal experiment. After acclimation, rats were divided equally into 22 groups consisting of 5 animals each. Animals in group 1 received the CDAA diet alone. […] Groups 5-7, 8-10, 11-13 and 14-16 received the CDAA diet containing the low, middle, and high doses of 4-OHPBN, 3-OHPBN, 2-OHPBN and 2-SPBN, respectively. Group 17 received the CSAA diet alone. […] All animals were sacrificed by exsanguination under light ether anesthesia 16 weeks after commencement, and the livers excised. Slices 5-mm-thick were taken from the left lateral, median and right lateral lobes of the livers, fixed in 10% neutrally-buffered formalin for 24 hours and then embedded in paraffin. Five serial 4-μm-thick sections were prepared from each fixed liver slice and used for histological and immunohistochemical assessment as described below. The remaining portions of the livers were immediately frozen under liquid nitrogen and stored at −80° C. until use.
Determination of oxidative hepatocyte injuries. Levels of oxidative damage to the hepatocytes were determined on frozen liver samples. Oxidative damage to nuclear DNA was assessed as previously described, using the amount of 8-hydroxydeoxyguanosine (8-OHdG) to 10^6 deoxyguanosine (dG) ratio as a parameter (Nakae et al. 1995). Oxidative injury to extra-nuclear components was assessed as described elsewhere, by determining picomole malondialdehyde equivalent (MDA eq.) levels of 2-thiobarbituric acid-reacting substances (TBARS) per milligram protein (Nakae et al. 1990).
(§2) Statistics. Inter-group differences in quantitative data for multiple groups were recognized to be significant, when p values smaller than 0.05 were obtained by the Dunnett multiple comparison test employed after one-way analysis of variance to determine the variation among the group means followed by the Bartlett's test to determine the homogeniety of variance.

[3] = tested on: GST-P-positive lesions in livers of male Wistar rats fed the CDAA diet; assay: Example 2: numbers and sizes of GST-P-positive liver lesions, CDAA diet for 16 weeks; type: in vivo, rat; conditions: for effect on the number or sizes of the GST-P-positive lesions: CDAA diet
Experimental: Animals. A total of 110 male Wistar rats were obtained at 5 weeks of age from Charles River Japan, Inc., Atsugi, Kanagawa, Japan. Experimentation began after a 1-week acclimation on a basal diet (CE-2 diet, Clea Japan, Meguro, Tokyo, Japan). Rats were housed 5 each in plastic cages with white flake bedding (Kansai Animal Corp., City of Kyoto, Kyoto, Japan) in a standard atmosphere (temperature, 25±3° C.; relative humidity, 55±8%; ventilation, 10-15/hour; and a 12-hour dark/light cycle). Free access to food and tap water was allowed throughout the acclimation and experimental periods.
Diets and chemicals. The CDAA diet and its control, a choline-supplemented, L-amino acid-defined (CSAA) diet (Nakae et al. 1992; and Nakae et al. 1990) were obtained from Dyets, Inc., Bethlehem, Pa. […] 2-Sulfoxy-PBN (2-SPBN) was purchased from Aldrich Chemical Co. (Milwaukee, Wis.).
as §1
(§3) Histological and immunohistochemical assessments. Histological assessment was performed using sections routinely stained with hematoxylin/eosin and Masson's trichrome procedures. Gradation of fibrosis was quantitatively evaluated in groups 1, 4, 7, 10, 13, 16 and 17 by calculating the percent area occupied by collagen fiber stained blue by Masson's trichrome method using an IPAP image analyzing system (Sumika Technoservice Corp., City of Osaka, Osaka, Japan). GST-P-positive lesions were visualized immunohistochemically. Lesions consisting of more than 6 cells were quantified using the IPAP system as described elsewhere (Kishida et al. 2000). The amount of apoptosis and the cellular proliferative activity were determined in groups 1, 4, 7, 10, 13, 16 and 17, using the double staining techniques by combination of the GST-P immunohistochemistry as above with the in situ terminal deoxynucleotidyl transferase-mediated dUTP-biotin nick end-labeling method (Gold et al. 1994) and the enhanced polymer one-step staining method for proliferating cell nuclear antigen (Tsutsumi et al. 1995), respectively. Numbers of apoptotic and proliferating hepatocytes among the 1000-5000 hepatocytes in GST-P-positive lesions and 5000 hepatocytes in surrounding tissue were counted under light microscopy to obtain percentages that are hereafter referred as apoptotic and proliferative indices, respectively.
as §2

[4] = tested on: livers of male Wistar rats fed the CDAA diet; assay: Example 2: histological liver injury (fibrosis, fatty liver); type: in vivo, rat; conditions: high dose 0.090%, CDAA diet 16 weeks
Text: as §1, §3, §2

[5] = tested on: hepatocytes of male Wistar rats fed the CDAA diet; assay: Example 2: apoptotic and proliferative indices in GST-P-positive lesions and surrounding tissue; type: in vivo, rat; conditions: high dose 0.090%
Text: as §1, §3, §2

## c1ccc(Nc2ccc(Nc3ccccc3)cc2)cc1 [N,N′-diphenyl-p-phenylenediamine]
Rats fed the CDAA diet; livers of rats fed the CDAA diet (Nakae et al. 1994)
  effect on sizes and numbers of GST-P-positive lesions: reduces the sizes of GST-P-positive lesions without affecting their numbers

## Cc1cc(C(C)(C)C)c(O)c(C(C)(C)C)c1 [BHT]
[1]
  IC50: 6 µM

## CCCCCCCCCCCCCCCCCCOC1=C(O)C([C@@H](O)CO)OC1=O (stereo partly shown) [CV3611]
Rats fed the CDAA diet; 0.05% level
  lowering of nodule size: 44%

## O=C(CBr)c1ccc(Br)cc1 [BPB, p-bromophenocybromide]
Rats fed the CDAA diet; rat, in vivo
  activity in suppressing the size of the nodules: little activity

## CC(=O)Oc1ccccc1C(=O)O [Acetylsalicylic acid]
Rats fed the CDAA diet; not nearly as potent as PBN
  effect on nodule size, nodule number and 8-OHdG content: some effect

## CC(Cc1ccc(O)c(O)c1)C(C)Cc1ccc(O)c(O)c1 (stereo not shown) [NGDA, nordihydroguaiaric acid]
Rats fed the CDAA diet; 0.1% level
  lowering of nodule size: 39%

## CC(C)(C)[N+]([O-])=Cc1cccc(O)c1 [3-OHPBN, 3-hydroxyphenyl N-tert-butylnitrone]
[2]
  nuclear DNA 8-OHdG content increased by CDAA diet feeding: significantly inhibited
[2]; high dose 0.090% only
  TBARS level enhanced by CDAA feeding: significantly inhibited
[3]; high dose 0.090% in CDAA diet
  sizes of GST-P-positive lesions, % of the group 1 value: 9%
[4]
  grade of fibrosis versus group 1: significantly lower
[5]
  apoptotic index in the surrounding tissue, % of the group 1 value: about 40%

## CC(C)(C)[N+]([O-])=Cc1ccccc1S(=O)(=O)O [2-SPBN, 2-sulfoxyphenyl N-tert-butylnitone]
[2]
  nuclear DNA 8-OHdG content increased by CDAA diet feeding: Neither 2-OHPBN nor 2-SPBN decreased
[2]; all three doses
  TBARS level enhanced by CDAA feeding: Neither 2-OHPBN nor 2-SPBN affected
[3]
  effect on the number or sizes of the GST-P-positive lesions: Neither 2-OHPBN nor 2-SPBN had any affect
[4]
  grade of fibrosis versus group 1: no affect
[5]
  effect on apoptotic indices: Neither 2-OHPBN nor 2-SPBN altered

## Cc1c(C)c2c(c(C)c1O)CC[C@@](C)(CCC[C@H](C)CCC[C@H](C)CCCC(C)C)O2 [Alpha tocopherol]
Rats fed the CDAA diet; rat, in vivo
  effect on any of the parameters: very little effect

## Cc1c(C)c2c(c(C)c1O)CCC(C)(C(=O)O)O2 (stereo not shown) [Trolox]
[1]
  IC50: 40 µM
Rats fed the CDAA diet; rat, in vivo
  effect on any of the parameters: very little effect

## CC(C)(C)[N+]([O-])=Cc1ccc(O)cc1 [4-OHPBN, 4-hydroxyphenyl N-tert-butylnitrone]
[2]
  nuclear DNA 8-OHdG content increased by CDAA diet feeding: significantly inhibited
[2]; all three doses
  TBARS level enhanced by CDAA feeding: significantly exerted an effect
[3]; high dose 0.090% in CDAA diet
  sizes of GST-P-positive lesions, % of the group 1 value: 18%
[3]; low dose 0.009% in CDAA diet
  sizes of GST-P-positive lesions, % of the group 1 value: 24%
[3]; middle dose 0.045% in CDAA diet
  sizes of GST-P-positive lesions, % of the group 1 value: 19%
[4]
  grade of fibrosis versus group 1: significantly lower
[5]
  apoptotic index in the surrounding tissue, % of the group 1 value: about 40%
  proliferative index in the lesions, % of the group 1 value: approximately 31%
  proliferative index in the surrounding tissue, % of the group 1 value: about 49%

## CCCCCCCCCCCCCCCCCCOC1=C(O)[C@@H]([C@@H](O)CO)OC1=O [2-O-octadecylascorbic acid]
Rats fed the CDAA diet; chronic feeding in the CDAA diet (Mizumoto et al. 1994)
  inhibition of rat hepatocarcinogenesis: inhibits rat hepatocarcinogenesis by chronic feeding in the CDAA diet greater than its hydrophilic parent, L-ascorbic acid

## CC(C)(C)[N+]([O-])=Cc1ccccc1O [2-OHPBN, 2-hydroxyphenyl N-tert-butylnitone]
[2]
  nuclear DNA 8-OHdG content increased by CDAA diet feeding: Neither 2-OHPBN nor 2-SPBN decreased
[2]; all three doses
  TBARS level enhanced by CDAA feeding: Neither 2-OHPBN nor 2-SPBN affected
[3]
  effect on the number or sizes of the GST-P-positive lesions: Neither 2-OHPBN nor 2-SPBN had any affect
[4]
  grade of fibrosis versus group 1: no affect
[5]
  effect on apoptotic indices: Neither 2-OHPBN nor 2-SPBN altered
